Results reported in ChEMBL document CHEMBL1926672, “New 5-benzylidenethiazolidin-4-one inhibitors of bacterial MurD ligase: design, synthesis, crystal structures, and biological evaluation” (Eur J Med Chem, 2011).
In brackets after ≈: the same amount, converted by molar mass. One block for each molecule: values may come before it.

How the values were obtained:
Escherichia coli [1] = assay: Inhibition of Escherichia coli MurD ligase assessed as residual activity at 250 uM after 15 mins using UDP-MurNAc-L-Ala substrate by malachite green colorimetric method
Staphylococcus aureus = assay: Antibacterial activity against Staphylococcus aureus ATCC 29213 after 18 to 24 hrs by macrodilution technique; type: functional
Escherichia coli [2] = assay: Antibacterial activity against Escherichia coli ATCC 25922 after 18 to 24 hrs by macrodilution technique; type: functional
Pseudomonas aeruginosa = assay: Antibacterial activity against Pseudomonas aeruginosa […] after 18 to 24 hrs by macrodilution technique; type: functional
Enterococcus faecalis = assay: Antibacterial activity against Enterococcus faecalis ATCC 29212 after 18 to 24 hrs by macrodilution technique; type: functional
[3] = Inhibition of Escherichia coli MurD ligase assessed as addition of D-[14C]glu to UDP-N-acetyl-muramoyl-L-alanine after 30 mins by radioactivity assay
Escherichia coli [4] = assay: Inhibition of Escherichia coli MurD ligase assessed as residual activity at 500 uM after 15 mins using UDP-MurNAc-L-Ala substrate by malachite green colorimetric method
[5] = Inhibition of Escherichia coli MurD ligase assessed as residual activity after 15 mins using UDP-MurNAc-L-Ala substrate by malachite green colorimetric method

Activity (Escherichia coli [1]): 71%
SMILES: O=C(O)CC[C@@H](NS(=O)(=O)c1ccc(COc2cccc(/C=C3\SC(=O)NC3=O)c2)cc1)C(=O)O

MIC (Staphylococcus aureus): 128 mg/L (≈ 223 µM) | MIC (Escherichia coli [2]): > 128 mg/L | MIC (Pseudomonas aeruginosa): > 128 mg/L | MIC (Enterococcus faecalis): 128 mg/L (≈ 223 µM) | IC50 [3]: 34 µM
SMILES: O=C(O)CC[C@@H](NC(=O)c1ccc(COc2ccc(/C=C3\SC(=S)NC3=O)cc2OCC(=O)O)cc1)C(=O)O
MBC (Staphylococcus aureus): > 128 mg/L | MBC (Escherichia coli [2]): > 128 mg/L | MBC (Pseudomonas aeruginosa): > 128 mg/L | MBC (Enterococcus faecalis): > 128 mg/L

Activity (Escherichia coli [4]): 86%
SMILES: O=C(O)CC[C@@H](NC(=O)c1ccc(COc2ccc(/C=C3\SC(=O)NC3=O)cc2OCC(=O)O)cc1)C(=O)O

Activity (Escherichia coli [4]): 65%
SMILES: O=C(O)CC[C@@H](NC(=O)c1cccc(COc2cccc(/C=C3\SC(=O)NC3=O)c2)c1)C(=O)O

IC50 [3]: 120 µM
SMILES: O=C(O)CC[C@@H](NS(=O)(=O)c1ccc(COc2ccc(/C=C3\SC(=S)NC3=O)cc2)cc1)C(=O)O

MIC (Staphylococcus aureus): > 128 mg/L | MIC (Escherichia coli [2]): > 128 mg/L | MIC (Pseudomonas aeruginosa): > 128 mg/L | MIC (Enterococcus faecalis): > 128 mg/L | IC50 [3]: 28 µM
SMILES: O=C(O)CC[C@@H](NC(=O)c1ccc(COc2cccc(/C=C3\SC(=S)NC3=O)c2)cc1)C(=O)O
MBC (Staphylococcus aureus): > 128 mg/L | MBC (Escherichia coli [2]): > 128 mg/L | MBC (Pseudomonas aeruginosa): > 128 mg/L | MBC (Enterococcus faecalis): > 128 mg/L

Activity (Escherichia coli [4]): 85%
SMILES: O=C(O)CC[C@@H](NC(=O)c1ccc(COc2ccc(Cn3ccc(=O)[nH]c3=O)cc2)cc1)C(=O)O

IC50 [5]: 76 µM
SMILES: O=C(O)CC[C@@H](NC(=O)c1cccc(COc2ccc(/C=C3\SC(=S)NC3=O)cc2)c1)C(=O)O

IC50 [3]: 45 µM
SMILES: O=C(O)CC[C@@H](NC(=O)c1cccc(CNc2ccc(/C=C3\SC(=S)NC3=O)cc2)c1)C(=O)O

IC50 [5]: 128 µM
SMILES: O=C(O)CC[C@@H](NC(=O)c1cccc(COc2ccc(/C=C3\SC(=O)NC3=O)cc2)c1)C(=O)O

Activity (Escherichia coli [4]): 86%
SMILES: O=C(O)CC[C@@H](NC(=O)c1cccc(COc2ccc(Cn3ccc(=O)[nH]c3=O)cc2)c1)C(=O)O

IC50 [5]: 472 µM
SMILES: O=C(O)CC[C@@H](NS(=O)(=O)c1ccc(COc2ccc(/C=C3\SC(=S)NC3=O)cc2OCC(=O)O)cc1)C(=O)O

Activity (Escherichia coli [4]): 79%
SMILES: O=C(O)CC[C@@H](NC(=O)c1ccc(COc2cccc(/C=C3\SC(=O)NC3=O)c2)cc1)C(=O)O

IC50 [5]: 814 µM
SMILES: O=C(O)CC[C@@H](NS(=O)(=O)c1ccc(COc2ccc(/C=C3\SC(=O)NC3=O)cc2OCC(=O)O)cc1)C(=O)O

MIC (Staphylococcus aureus): > 128 mg/L | MIC (Escherichia coli [2]): > 128 mg/L | MIC (Pseudomonas aeruginosa): > 128 mg/L | MIC (Enterococcus faecalis): > 128 mg/L | IC50 [3]: 45 µM
SMILES: O=C(O)CC[C@@H](NS(=O)(=O)c1ccc(COc2cccc(/C=C3\SC(=S)NC3=O)c2)cc1)C(=O)O
MBC (Staphylococcus aureus): > 128 mg/L | MBC (Escherichia coli [2]): > 128 mg/L | MBC (Pseudomonas aeruginosa): > 128 mg/L | MBC (Enterococcus faecalis): > 128 mg/L

IC50 [3]: 47 µM
SMILES: O=C(O)CC[C@@H](NC(=O)c1cccc(COc2cccc(/C=C3\SC(=S)NC3=O)c2)c1)C(=O)O
